Patent US7452886B2, “Pyrrolo pyrimidines as agents for the inhibition of cystein proteases” (Novartis AG, priority 2001, dated 2008)

Target: T1, recombinant human cathepsin K (Homo sapiens, UniProt P43235)
T1 sequence (P43235 115-329): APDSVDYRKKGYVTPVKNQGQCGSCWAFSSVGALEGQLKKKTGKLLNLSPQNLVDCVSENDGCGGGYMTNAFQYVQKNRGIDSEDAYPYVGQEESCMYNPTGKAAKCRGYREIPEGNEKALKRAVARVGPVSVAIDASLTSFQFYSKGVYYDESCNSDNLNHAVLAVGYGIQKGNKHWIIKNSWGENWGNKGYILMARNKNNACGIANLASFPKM
Assay: In vitro inhibition of recombinant human cathepsin K (Z-Phe-Arg-AMCA fluorescence assay)
Type: biochemical
Details: recombinant human cathepsin K 0.16 nM, Z-Phe-Arg-AMCA substrate, pH 7.0, 30 min preincubation, 30 min incubation, ambient temperature
Procedure: The In Vitro assay is Carried out as Follows:
The assay is performed in 96 well microtiter plates at ambient temperature using recombinant human cathepsin K. Inhibition of cathepsin K is assayed at a constant enzyme (0.16 nM) and substrate concentration ([…] Z-Phe-Arg-AMCA—Peptide Institute Inc. Osaka, Japan) in 100 mM sodium phosphate buffer, pH 7.0, containing 2 mM dithiothreitol 20 mM Tween 80 and 1 mM EDTA. Cathepsin K is preincubated with the inhibitors for 30 min, and the reaction is initiated by the addition of substrate. After 30 min incubation the reaction is stopped by the addition of E-64 (2 mM), and fluorescence intensity is read on a multi-well plate reader at excitation and emission wavelengths of 360 and 460 nm, respectively. […] Thus for example, the compounds of Examples 6-15 and 7-45 have IC50s for inhibition of human cathepsin K of 1 nM and 0.6 nM respectively.

IC50 | Compound
1000 pM | Cc1ccc(N2CCN(Cc3cc4cnc(C#N)nc4n3CC(C)(C)C)CC2)cc1 [Example 6-15]
600 pM | CC(C)(C)Cn1c(CN2CCC3(CC2)NC(=O)NC3=O)cc2cnc(C#N)nc21 [Example 7-45]
